Results published in US8252793B2, “Bradykinin receptor agonists and uses thereof to treat ocular hypertension and glaucoma” (Alcon Research, Ltd., priority 2010, dated 2012).

Assays:
[1] = molecular target: T1, recombinant human bradykinin B2 receptor (Homo sapiens, UniProt P30411); test: [3H]-BK competition radioligand binding to human cloned B2 receptor (CHO cell membranes); settings: 0.2 nM [3H]-bradykinin, CHO membranes, 60 min 23° C.; mean ± SEM or single value; Ki from IC50 by Cheng-Prusoff; read-out: [3H]-BK Binding to Human Cloned B2 Receptor (Ki)
T1 construct: expressed in transfected cells; host or cells: Chinese hamster ovary (CHO) cells, membrane homogenates
T1 sequence (P30411 1-391): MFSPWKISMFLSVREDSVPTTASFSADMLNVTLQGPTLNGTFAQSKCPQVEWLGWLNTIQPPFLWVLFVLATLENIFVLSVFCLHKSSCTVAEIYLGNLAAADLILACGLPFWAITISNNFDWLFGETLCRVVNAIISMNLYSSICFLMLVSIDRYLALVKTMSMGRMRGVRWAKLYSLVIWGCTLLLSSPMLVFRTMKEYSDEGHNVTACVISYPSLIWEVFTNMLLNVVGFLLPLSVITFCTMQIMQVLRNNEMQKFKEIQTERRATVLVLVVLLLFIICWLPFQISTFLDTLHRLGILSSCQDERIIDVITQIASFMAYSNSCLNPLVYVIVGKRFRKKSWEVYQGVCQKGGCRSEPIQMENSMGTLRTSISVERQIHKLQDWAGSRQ
Protocol: Chinese hamster ovary (CHO) cell membrane homogenates (2.5 μg protein) expressing the recombinant human bradykinin B2 receptor were incubated for 60 min at 23° C. with 0.2 nM [^3H]-bradykinin (95.5 Ci/mmole, PerkinElmer) in the absence or presence of the test compound in a buffer containing 50 mM Tris/HCl (pH 7.4), 0.2 g/L 1-10-phenanthroline and 0.1% BSA. All reagent and test compound additions to the assay plates were made using Biomek 3000 robotic workstations (Beckman Instruments, Fullerton, Calif.). Nonspecific binding was determined in the presence of 1 μM unlabeled bradykinin. Following the incubation, the assay was terminated by rapid filtration under vacuum through glass fiber filters (GF/C, PerkinElmer) presoaked with 0.3% polyethyleneimine and rinsed several times with an ice-cold 50 mM Tris-HCl buffer using a 96-sample cell harvester (Tomtec). The filters were air-dried and the radioactivity counted in a beta-scintillation counter (Topcount, PerkinElmer) using a scintillation cocktail (Microscint 20, PerkinElmer) (Sharif and Whiting, Neurochem. Int. 18: 89-96, 1991). Competitive binding inhibition curves were generated using a 7-point concentration—response of test compound in duplicate. Bradykinin peptide was also tested as an internal control in the assay. The data were analyzed using nonlinear, iterative curve-fitting to obtain the potency and intrinsic activities of the test agents as previously described (Sharif et al. J. Pharmacol. Exp. Ther. 286: 1094-1102, 1998; Sharif et al. Invest Ophthalmol. Vis. Sci. 39:2562-2571, 1998; Kelly et al. J. Pharmacol. Exp. Ther. 304: 238-245, 2003). Determined IC50 values were converted to Ki values using the standard Cheng-Prusoff equation.

[2] = test system: primary human ciliary muscle cells (h-CM); test: Total prostaglandin (PG) release from primary h-CM cells (EIA); format: cell-based; settings: Homo sapiens, 1 h, 1 hour at 37° C., class symbols (in μM)
Protocol: BK agonist compounds of Formula 1 were evaluated for the ability to induce prostaglandin (PG) release from primary human ciliary muscle cells (h-CM). Briefly, h-CM cells were grown to confluence in FNC-coated 24-well culture plates and serum-starved (0.8% FBS) for 24 hours prior to the experiment. Cells were stimulated with a 9-pt concentration-response (0.1 nM-10 μM) of bradykinin or BK agonist for 1 hour at 37° C. with subsequent sample recovery and processing for total PG measurement. Total PG measurement was determined using a total Prostaglandin Screening EIA kit (cat#514012) purchased from Cayman Chemical (Ann Arbor, Mich.). The assay was conducted according to the package insert from the manufacturer.

[3] = molecular target: T2, BK receptors in human ciliary muscle cells (h-CM) (Homo sapiens, UniProt P30411); test: Functional assay measuring [Ca2+]i mobilization (FLIPR) in h-CM cells; format: cell-based; settings: class symbols (in μM), read-out: CaM (EC50)
T2 construct: h-CM cells expressing BK receptors were seeded; endogenous in cells; host or cells: human ciliary muscle (h-CM) cells
T2 sequence (P30411 1-391): T1 sequence (P30411 1-391)
Protocol: On the day of the experiment, media was removed, cells were rinsed and 50 μL of serum-free media added. One vial of FLIPR Calcium Assay Kit dye was reconstituted in 50 mL of a FLIPR buffer consisting of Hank's Balanced Salt Solution (HBSS), 20 mM HEPES, and 2.5 mM probenecid, pH 7.4. Cells were loaded with the calcium-sensitive dye by addition of an equal volume (50 μL) to each well of the 96-well plate and incubated with dye for 1 h at 23° C. […] After this time, the test compound plate and cell plate were placed in a Fluorescence Imaging Plate Reader (FLIPR-Tetra®) instrument (Molecular Devices/MDSPharma, Sunnyvale, Calif.). At the beginning of an experimental run, a signal test was performed to check the basal fluorescence signal from the dye-loaded cells and the uniformity of the signal across the plate. […] An aliquot (25 μL) of the test compound was added to the existing 100 μL dye-loaded cells at a dispensing speed of 50 μL/sec. Intracellular calcium mobilization was measured by monitoring real-time changes in cellular fluorescence upon test compound addition. Fluorescence data were collected in real-time at 1.0 sec intervals for the first 60 seconds and at 6.0 second intervals for an additional 120 seconds. Baseline fluorescence readings were normalized across the plate and background-corrected from negative control wells. […] EC50 values were determined by 4-parameter nonlinear curve fitting of the concentration-response curve. Calibration of the instrument was performed using manufacturer's standard procedures.

What does the source list for `COc1nc2c(OCc3c(Cl)ccc(N(C)C(=O)CNC(=O)CCN4CCC(NC(C)=O)CC4)c3Cl)cccc2n1Cc1ccccn1` [Compound 8, 3-(4-acetamidopiperidin-1-yl)-N-(2-((2,4-dichloro-3-(((2-methoxy-1-(pyridin-2-ylmethyl)-1H-benzo[d]imidazol-4-yl)oxy)methyl)phenyl)(methyl)amino)-2-oxoethyl)propanamide]?
Ki [1]: 0.068 ± 0.016 µM; EC50 [2]: < 0.1 µM; EC50 [3]: < 0.1 µM

Which results are given for `CCOC(=O)NC1=NCC(CCC(=O)NCC(=O)N(C)c2ccc(Cl)c(COc3cccc4c3nc(OC)n4Cc3ccccn3)c2Cl)CN1` (stereo not drawn) [Compound 9, Ethyl (5-(3-((2-((2,4-dichloro-3-(((2-methoxy-1-(pyridin-2-ylmethyl)-1H-benzo[d]imidazol-4-yl)oxy)methyl)phenyl)(methyl)amino)-2-oxoethyl)amino)-3-oxopropyl)-1,4,5,6-tetrahydropyrimidin-2-yl)carbamate]?
Ki [1]: 0.667 ± 0.101 µM; EC50 [2]: 0.1 to 1 µM; EC50 [3]: < 0.1 µM

`COc1nc2c(OCc3c(Cl)ccc(N(C)C(=O)CNC(=O)CNC4CCC(NC(C)=O)CC4)c3Cl)cccc2n1Cc1ccccn1` (stereo not drawn) [Compound 10, 2-(2-((4-acetamidocyclohexyl)amino)acetamido)-N-(2,4-dichloro-3-(((2-methoxy-1-(pyridin-2-ylmethyl)-1H-benzo[d]imidazol-4-yl)oxy)methyl)phenyl)-N-methylacetamide] was tested. Which Ki [1] did it give?
The Ki was 0.076 ± 0.016 µM.

What about the EC50 [2] of the same compound?
The EC50 was > 1 µM.

And the EC50 [3]?
The EC50 was < 0.1 µM.

`CNC(=O)C1CCN(CCC(=O)NCC(=O)N(C)c2ccc(Cl)c(COc3cccc4c3nc(OC)n4Cc3ccccn3)c2Cl)CC1` [Compound 11] was tested. Which Ki [1] did it give?
The Ki was 0.391 ± 0.035 µM.

And the EC50 [2]?
Its EC50 is > 1 µM.

And the EC50 [3]?
The EC50 was < 0.1 µM.

Which results are given for `CNC(=O)N1CCN(CCCC(=O)NCC(=O)N(C)c2ccc(Cl)c(COc3cccc4c3nc(OC)n4Cc3ccccn3)c2Cl)CC1` [Compound 12]?
Ki [1]: 0.261 ± 0.195 µM; EC50 [2]: > 1 µM; EC50 [3]: < 0.1 µM

For `CCc1nc2c(OCc3c(Cl)ccc(N(C)C(=O)CNC(=O)CCN4CCN(C(=O)NC)CC4)c3Cl)cccc2n1Cc1ccccn1` [Compound 19, 4-(3-((2-((2,4-dichloro-3-(((2-ethyl-1-(pyridin-2-ylmethyl)-1H-benzo[d]imidazol-4-yl)oxy)methyl)phenyl)(methyl)amino)-2-oxoethyl)amino)-3-oxopropyl)-N-methylpiperazine-1-carboxamide], which Ki [1] is on record?
Its Ki is 0.262 ± 0.011 µM.

And the EC50 [2]?
Its EC50 is > 1 µM.

And the EC50 [3]?
The EC50 was < 0.1 µM.

`CNC(=O)N1CCN(CC(=O)NCC(=O)N(C)c2ccc(Cl)c(COc3cccc4c3nc(OC)n4Cc3ccccn3)c2Cl)CC1` [Compound 20] was tested. Which Ki [1] did it give?
The Ki was 1.09 ± 0.138 µM.

And the EC50 [2]?
Its EC50 is > 1 µM.

What about the EC50 [3] of the same compound?
The EC50 was 0.1 to 1 µM.

How did the Ki [1] turn out when `COc1nc2c(OCc3c(Cl)ccc(N(C)C(=O)CNC(=O)C4CCN(C5CCNC5)C4)c3Cl)cccc2n1Cc1ccccn1` (stereo not drawn) [Compound 22, N-(2-((2,4-dichloro-3-((2-methoxy-1-(pyridin-2-ylmethyl)-1H-benzo[d]imidazol-4-yloxy)methyl)phenyl)(methyl)amino)-2-oxoethyl)-1,3′-bipyrrolidine-3-carboxamide] was run?
The Ki was 0.16 ± 0.047 µM.

What about the EC50 [2] of the same compound?
Its EC50 is > 1 µM.

What about the EC50 [3] of the same compound?
The EC50 was < 0.1 µM.

What does the source list for `CNC(=O)N1CCC(N2CCC(C(=O)NCC(=O)N(C)c3ccc(Cl)c(COc4cccc5c4nc(OC)n5Cc4ccccn4)c3Cl)C2)C1` (stereo not drawn) [Compound 24, N3-(2-((2,4-dichloro-3-((2-methoxy-1-(pyridin-2-ylmethyl)-1H-benzo[d]imidazol-4-yloxy)methyl)phenyl)(methyl)amino)-2-oxoethyl)-N1′-methyl-1,3′-bipyrrolidine-1′,3-dicarboxamide]?
Ki [1]: 0.171 ± 0.097 µM; EC50 [2]: 0.1 to 1 µM; EC50 [3]: < 0.1 µM

With `COc1nc2c(OCc3c(Cl)ccc(N(C)C(=O)CNC(=O)CCC4CN=C(NC(C)=O)NC4)c3Cl)cccc2n1Cc1ccccn1` (stereo not drawn) [Compound 25, 3-(2-acetamido-1,4,5,6-tetrahydropyrimidin-5-yl)-N-(2-((2,4-dichloro-3-(((2-methoxy-1-(pyridin-2-ylmethyl)-1H-benzo[d]imidazol-4-yl)oxy)methyl)phenyl)(methyl)amino)-2-oxoethyl)propanamide] as the compound, how does the Ki [1] read?
Its Ki is 0.074 ± 0.006 µM.

And the EC50 [2]?
The EC50 was 0.1 to 1 µM.

And the EC50 [3]?
The EC50 was < 0.1 µM.

What does the source list for `CNC(=O)c1ccc(CCC(=O)NCC(=O)N(C)c2ccc(Cl)c(COc3cccc4c(OCc5ccccn5)cc(C)nc34)c2Cl)cn1` [Compound 27, 5-(3-((2-((2,4-dichloro-3-(((2-methyl-4-(pyridin-2-ylmethoxy)quinolin-8-yl)oxy)methyl)phenyl)(methyl)amino)-2-oxoethyl)amino)-3-oxopropyl)-N-methylpicolinamide]?
Ki [1]: 0.011 µM; EC50 [2]: 0.1 to 1 µM; EC50 [3]: 0.1 to 1 µM

With `CC(=O)Nc1ccc(CCC(=O)NCC(=O)N(C)c2ccc(Cl)c(COc3cccc4c(OCc5ccccn5)cc(C)nc34)c2Cl)cc1` [Compound 28, 3-(4-acetamidophenyl)-N-(2-((2,4-dichloro-3-(((2-methyl-4-(pyridin-2-ylmethoxy)quinolin-8-yl)oxy)methyl)phenyl)(methyl)amino)-2-oxoethyl)propanamide] as the compound, how does the Ki [1] read?
The Ki was 0.003 µM.

What about the EC50 [2] of the same compound?
Its EC50 is < 0.1 µM.

And the EC50 [3]?
Its EC50 is 0.1 to 1 µM.

How did the Ki [1] turn out when `Cc1cc(OCc2ccccn2)c2cccc(OCc3c(Cl)ccc(N(C)C(=O)CNC(=O)CCc4ccc(NS(C)(=O)=O)cc4)c3Cl)c2n1` [Compound 29, N-(2-((2,4-dichloro-3-(((2-methyl-4-(pyridin-2-ylmethoxy)quinolin-8-yl)oxy)methyl)phenyl)(methyl)amino)-2-oxoethyl)-3-(4-(methylsulfonamido)phenyl)propanamide] was run?
The Ki was 0.008 ± 0.003 µM.

What about the EC50 [2] of the same compound?
Its EC50 is > 1 µM.

What about the EC50 [3] of the same compound?
Its EC50 is 0.1 to 1 µM.

What does the source list for `CNC(=O)c1ccc(CCC(=O)NCC(=O)N(C)c2ccc(Cl)c(COc3cccc4c(OCc5ccccn5)cc(C)nc34)c2Cl)cc1` [Compound 30]?
Ki [1]: 0.003 µM; EC50 [2]: 0.1 to 1 µM; EC50 [3]: 0.1 to 1 µM

For `COc1nc2c(OCc3c(Cl)ccc(N(C)C(=O)CNC(=O)CCc4ccc(NC(C)=O)nc4)c3Cl)cccc2n1Cc1ccccn1` [Compound 32, 3-(6-acetamidopyridin-3-yl)-N-(2-((2,4-dichloro-3-(((2-methoxy-1-(pyridin-2-ylmethyl)-1H-benzo[d]imidazol-4-yl)oxy)methyl)phenyl)(methyl)amino)-2-oxoethyl)propanamide], which Ki [1] is on record?
Its Ki is 0.025 ± 0.008 µM.

What about the EC50 [2] of the same compound?
Its EC50 is < 0.1 µM.

What about the EC50 [3] of the same compound?
The EC50 was < 0.1 µM.

What does the source list for `CNC(=O)c1ccc(CCC(=O)NCC(=O)N(C)c2ccc(Cl)c(COc3cccc4c3nc(OC)n4Cc3ccccn3)c2Cl)cc1` [Compound 33, 4-(3-((2-((2,4-dichloro-3-(((2-methoxy-1-(pyridin-2-ylmethyl)-1H-benzo[d]imidazol-4-yl)oxy)methyl)phenyl)(methyl)amino)-2-oxoethyl)amino)-3-oxopropyl)-N-methylbenzamide]?
Ki [1]: 0.007 ± 0.001 µM; EC50 [2]: < 0.1 µM; EC50 [3]: < 0.1 µM
